Experimental data published in US8357659B2, “Method of treating pain or itching with APETx2 peptide toxin” (priority 2008, dated 2013).

Columns and labels:
[1] = test system: ASIC type current of cutaneous neurons of the spinal ganglia; experiment: Whole cell patch clamp of native ASIC currents in cutaneous neurons of the spinal ganglia; format: cell-based, rat
Method: The neurons of the dorsal root ganglion (spinal ganglia or DRG) innervating the skin were labelled by subcutaneous injections of 5×1 μl of Dil fluorescent dye (5% DMSO, Molecular Probes) in the dorsal side of the rats' hind paws. The dye was injected two weeks before the rats were sacrificed in order to prepare a primary culture of dorsal root ganglion.
The lumbar dorsal root ganglia L3-L6 of Wistar rats (8-11 weeks) were dissected bilaterally and separated enzymatically with 0.1% collagenase. The cells were subsequently plated on 35 mm Petri dishes covered with collagen and cultured at 37° C. (95% air/5% CO2) in DMEM medium containing 5% of foetal calf serum. The electrophysiological experiments were performed 1 to 8 days after seeding.
(§1) The whole cell configuration of the patch clamp method was used ([ref. 48]) in order to measure the membrane currents (imposed voltage) or the membrane potentials (imposed current). The recordings were performed at ambient temperature using an RK-400 amplifier (Bio-Logic Science Instruments) with a 3 kHz low-pass filter (Krohn-Hite). The data were sampled at 10 kHz, digitised using a Digidata 1322A A-D/D-A converter (Axon Instruments) and recorded on a hard disk using pClamp software (version 9.2.0.11, Axon Instruments). The recording probes (1-4 MOhms) contained (in mM): 135 KCl, 2.5 Na2-ATP, 2 MgCl2, 2.1 CaCl2, 5 EGTA, 10 HEPES (pH 7.25 with KOH). Various different buffers and drugs of interest were added to the transfected cells considered individually using an internally developed microinfusion system controlled by microelectrovalves (Sirai, Italy) allowing rapid changes of solution. The control bath solution contained (in mM): 145 NaCl, 5 KCl, 2 MgCl2, 2 CaCl2, 10 HEPES (pH 7.4 with NaOH). The MES medium was used instead of the HEPES medium in order to buffer the solution at a pH ranging from 6 to 5, and the ASIC currents were induced by rapid changes of a control solution at pH 7.4 to an acid test solution using the microinfusion system. For the experiments conducted on the DRG neurons, glucose (10 mM) was added to the control bath solution. Hypertonic conditions were obtained by adding mannitol or sucrose to the external bath solutions, as indicated in the text.

[2] = molecular target: T1, ASIC3 (rat clone) in F-11 cells (Rattus norvegicus, UniProt O35240); experiment: Whole cell patch clamp of recombinant ASIC3 in transfected F-11 cells; format: cell-based
T1 construct: expressed in transfected cells; host or cells: F-11 cells, vector pCI-ASIC3r co-transfected with pIRES2-EGFP
T1 sequence (O35240 1-533): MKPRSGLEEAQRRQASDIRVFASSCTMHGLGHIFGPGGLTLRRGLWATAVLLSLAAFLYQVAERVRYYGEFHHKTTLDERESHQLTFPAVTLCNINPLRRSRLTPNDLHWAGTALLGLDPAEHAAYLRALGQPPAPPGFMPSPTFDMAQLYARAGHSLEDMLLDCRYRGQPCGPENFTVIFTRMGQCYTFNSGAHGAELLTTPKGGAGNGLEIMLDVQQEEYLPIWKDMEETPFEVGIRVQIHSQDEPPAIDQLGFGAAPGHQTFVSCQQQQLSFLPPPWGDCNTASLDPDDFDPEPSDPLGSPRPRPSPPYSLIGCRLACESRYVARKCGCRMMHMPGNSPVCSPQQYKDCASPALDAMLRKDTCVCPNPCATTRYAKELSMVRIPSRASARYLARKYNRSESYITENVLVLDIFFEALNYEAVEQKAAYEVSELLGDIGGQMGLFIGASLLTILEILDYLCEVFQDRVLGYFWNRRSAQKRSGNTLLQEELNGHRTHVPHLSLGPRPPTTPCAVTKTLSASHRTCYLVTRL
Method: (§2) F-11 cells (refs. 44, 45, 46, 47]) were cultured in 5% of CO2 at a density of 50,000 cells per 35 mm Petri dish. The culture medium contained HAM F-12 medium (Invitrogen) supplemented with 15% foetal bovine serum (ICN Biomedicals), 1×HAT (sodium hypoxanthine, aminopterine and thymidine), 200 μg/ml of allo-4-hydroxy-L-proline (Sigma-Aldrich) and 1% antibiotics. One day after seeding, the cells were transfected with ASIC1a or ASIC3 DNAc (rat clones) using Lipofectamine™ (Invitrogen) according to the manufacturer's instructions using the vectors pCI-ASIC1ar+pIRES2-EGFP (ratio 1:2) or pCI-ASIC3r+pIRES2-EGFP (ratio 1:10) ([ref. 36]), quoted above). For the experiments concerning the human ASIC3 clone (refer to experiments on the effects of the APETx2 toxin on the human form of the ASIC3 channel), the cells were transfected with the DNAc of human ASIC3 using the transfection agent JetPEI (Polypus Transfection) according to the manufacturer's instructions with the aid of the vector pASIC3h-IRES-EGFP. The cells were used for the patch clamp experiments (an electrophysiological method for recording ionic currents travelling through cell membranes) 2 to 4 days after transfection.
as §1

[3] = molecular target: T2, ASIC1a (rat clone) in F-11 cells (Rattus norvegicus, UniProt P55926); experiment: Whole cell patch clamp of recombinant ASIC1a in transfected F-11 cells; format: cell-based
T2 construct: expressed in transfected cells; host or cells: F-11 cells, vector pCI-ASIC1ar co-transfected with pIRES2-EGFP
T2 sequence (P55926 1-526): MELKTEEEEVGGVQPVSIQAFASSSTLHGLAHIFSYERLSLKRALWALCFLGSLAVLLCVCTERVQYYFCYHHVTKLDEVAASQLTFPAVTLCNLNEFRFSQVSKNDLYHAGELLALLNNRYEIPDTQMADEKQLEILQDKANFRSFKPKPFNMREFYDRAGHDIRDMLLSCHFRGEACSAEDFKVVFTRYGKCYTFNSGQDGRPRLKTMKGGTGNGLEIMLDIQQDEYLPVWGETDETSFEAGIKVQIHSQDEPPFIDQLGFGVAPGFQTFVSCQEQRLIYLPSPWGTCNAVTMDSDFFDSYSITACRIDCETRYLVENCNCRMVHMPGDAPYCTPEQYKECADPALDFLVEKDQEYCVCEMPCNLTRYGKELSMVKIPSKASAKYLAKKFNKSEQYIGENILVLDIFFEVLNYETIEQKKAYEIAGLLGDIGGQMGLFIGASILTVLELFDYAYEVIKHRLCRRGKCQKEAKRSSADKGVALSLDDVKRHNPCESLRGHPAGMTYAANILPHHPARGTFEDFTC
Method: as §2
The whole cell configuration of the patch clamp method was used ([ref. 48]) in order to measure the membrane currents (imposed voltage) or the membrane potentials (imposed current). The recordings were performed at ambient temperature using an RK-400 amplifier (Bio-Logic Science Instruments) with a 3 kHz low-pass filter (Krohn-Hite). The data were sampled at 10 kHz, digitised using a Digidata 1322A A-D/D-A converter (Axon Instruments) and recorded on a hard disk using pClamp software (version 9.2.0.11, Axon Instruments). The recording probes (1-4 MOhms) contained (in mM): 135 KCl, 2.5 Na2-ATP, 2 MgCl2, 2.1 CaCl2, 5 EGTA, 10 HEPES (pH 7.25 with KOH). Various different buffers and drugs of interest were added to the transfected cells considered individually using an internally developed microinfusion system controlled by microelectrovalves (Sirai, Italy) allowing rapid changes of solution. […]

[4] = test system: cutaneous pain induced by moderate acidification; experiment: Nociceptive behaviour in rats after subcutaneous injection of moderately acidic solutions; format: in vivo, rat
Method: Adult (7-8 weeks' old) male Wistar rats (Charles River, France) were placed in plastic cages with a nyctohemeral period of 12 h (with light between 8 a.m. and 8 p.m.) and with free access to food and water. The rats were left to acclimatize for at least one week before the experiments. For the behavioural experiments, the rats were placed in a transparent observation chamber where they were acclimatized for 20-30 minutes. They were subsequently immobilised while 20 μl of saline solution (0.9% or 2% of NaCl+20 mM of HEPES, […] or 60 nM of PcTx1 toxin), was administered subcutaneously to the dorsal side of the right hind paw using a 30G needle connected to a 100 μl Hamilton syringe. The nociceptive behaviour (i.e. the number of hind leg quiverings) was recorded over a 5-minute period, starting immediately after the injection ([ref. 59]).

[5] = test system: thermal hyperalgesia induced by CFA; experiment: Inflammation-induced (CFA) thermal hyperalgesia in rats, hotplate at 50° C.; format: in vivo, rat
Method: Sensitivity to heat of adult male Wistar rats (Charles River, France) was tested by measuring the time taken by the animal to retract one of its hind paws when placed on a hotplate at 50° C. (Bioseb, France), before and after induction of inflammation by subcutaneous injection of a solution of Freund's complete adjuvant (CFA, Sigma-Aldrich, France). The rats were acclimatised to the experimentation room for at least 30 minutes and each measurement was performed in duplicate. An initial measurement was performed before induction of inflammation. The rats were subsequently anaesthetised (isofluorane) while 150 μl of CFA diluted 1:1 with a saline solution (0.9% NaCl) containing either toxins (PcTx1 or APETx2, 120 nM and 20 μM, respectively) or the vehicle was injected (26G needle mounted on a 1 ml syringe) subcutaneously into the plantar side of one of the hind paws. The time taken by the animal to lift the injected hind paw was subsequently measured at 50° C., 2, 4 and 24 hours after the injection of CFA.
(§3) ASIC3 channel-specific iRNA (no. 1121; CTACACGCTATGCCAAGGA, SEQ ID NO: 1) and its control (no. 1121S; GCTCACACTACGCAGAGAT, SEQ ID NO: 2) were designed in the laboratory and were synthesised by MWG Biotech Company (Germany). The ASIC3-specific iRNA was validated by quantification of the messenger RNA levels by quantitative RT-PCR for each ASIC channel and for the TRPV1 channel, following intrathecal injections into the lumbar region of the spinal cord of rats, at a rate of one injection per day for 3 consecutive days, before the animal was sacrificed. The same procedure was followed before induction of inflammation by CFA. Each injection was 10 μl in volume, containing 2 μg of iRNA mixed with the transfection agent i-Fect (Neuromics) at a ratio of 1 to 4.

ASIC3 messenger RNA = experiment: Quantitative RT-PCR of channel messenger RNA levels in spinal ganglia after intrathecal iRNA; format: in vivo, rat; conditions: 2 μg per injection, one per day for 3 days, other ASIC and TRPV1 channels not reduced
Excerpt: as §3

CCCCC/C=C\C/C=C\C/C=C\C/C=C\CCCC(=O)O [arachidonic acid]
excitability of the cutaneous neurons (triggering of the action potential) ([1]; FIG. 2C): increased excitability | increase of the ASIC current induced by native pH 7.0 ([1]; pH 7.0, n=6, P=0.06): 172±65% | non-inactivating ASIC3 window current ([2]; FIG. 4D): markedly increased | increase of the ASIC3 current ([2]; activated by pH 6.6, n=7, P=0.45): 40±22% | increase of the ASIC3 current ([2]; activated by pH 7.0, n=9): 493±84% | increase of the ASIC3 current ([2]; activated by pH 7.2, n=23): 547±103% | increase of the ASIC1a current ([3]; pH 6.6, n=2): 21±15% | increase of the ASIC1a current ([3]; pH 7.0, n=5, P=0.06): 183±54% | effect on ASIC1a current ([3]; pH 7.2): does not have any effect | quivering score ([4]; co-injected 2% NaCl (~600 mosmol.kg^−1) and 10 mM AA at pH 6.9, subcutaneous, hind paw, 5-minute period, n=25, versus 11.1±2.54 at pH 6.9 alone): 20.42±2.53

OC[C@@H](O)[C@@H](O)[C@H](O)[C@H](O)CO [mannitol]
increase of the ASIC3 current by hyperosmolarity ([2]; 600 mosmol.kg^−1 with mannitol, activated by pH 7.2, n=20): 148±20%

PcTx1: animal peptide toxin, selective inhibitor of the homomer channels ASIC1a (EDCIPKWKGCVNRHGDCCEGLECWKRRRSFEVCVPKTPKT)
inhibition by the toxin of the ASIC type current induced by pH 6.6 ([1]; in 4.7% (2/43) of neurons, ASIC1a homomer current): > 90% | inhibition by the toxin of the ASIC type current induced by pH 6.6 ([1]; in 23.3% (10/43) of neurons, ASIC3 type currents): < 10% | behaviour in response to acid pain with inflammatory signals ([4]; pH 6.9 + 2% NaCl + AA, 10 μM APETx2 or 60 nM PcTx1 in injected solution, FIG. 5A): devoid of any significant effect | development of thermal hyperalgesia ([5]; toxin concomitantly injected with CFA (APETx2 20 μM, PcTx1 120 nM), four hours after CFA): devoid of any significant effect

ASIC3 channel-specific iRNA: interfering RNA directed against ASIC3 messenger RNA, CTACACGCTATGCCAAGGA, SEQ ID NO: 1 (listed as DNA, chemistry not given here)
development of inflammatory thermal hyperalgesia ([5]; intrathecal iRNA during the 3 days preceding CFA, versus random sequence control iRNA): do not develop any inflammatory thermal hyperalgesia | expression of the ASIC3 channels in the sensory neurons (ASIC3 messenger RNA): marked and exclusive reduction
